# Measured values taken from US5663151A, “Sulfated α-glycolipid derivatives as cell adhesion inhibitors” (Bristol-Myers Squibb Company, priority 1995, dated 1997).
# How the values were obtained:
# [1] = target: T1, P-selectin Rg (Homo sapiens, UniProt P16109); assay: HL-60 cell binding to P-selectin Rg; type: cell-based; settings: HL-60 cells, binding to P-selectin Rg coated wells
# T1 construct: consists of the human lectin domain, the EGF domain, and two complement repeats of the human selectins; made in house
# Description: 2. HL-60 Cell Binding to P- and E-Selectin RG
# The chimeric P- and E-selectin receptor globulin (Rg) consists of the human lectin domain, the EGF domain, and two complement repeats of the human selectins fused to the hinge, CH1 and CH2 domains of human IgG1. These proteins were prepared as described by Aruffo, et al., Cell (1991) 67: 35-44; Walz, et al., Science (1990) 250, 1132-1135.
# The HL-60 cell line, obtained from the American Type Culture Collection, ATCC No. CCL240, was employed to investigate P-selectin Rg binding. Assays were done in 96-well tissue culture dishes. The wells were first coated with 0.5 ug goat anti-human Fc antiserum overnight, and nonspecific binding sites were blocked by incubation of the wells with 1% nonfat dry milk in phosphate buffered saline (PBS containing 0.9 mM CaCl2 and 0.8 mM MgSO4) for 30 minutes. The Rg was then bound to the anti Fc-coated wells by incubating 50 ng in 50 ul of PBS for two hours. Cells, washed twice and resuspended in PBS to remove traces of medium components, were labeled with 10 uM calcein acetoxy methyl ester for 30 minutes at 3×10^7 cells per ml at room temperature. Serum-containing medium (RPMI with 20% fetal calf serum) was added, and the cells washed, followed by resuspension in PBS and a further spin. The labeled cells, resuspended in PBS, were added to twice washed Rg-containing wells at 200,000 per well. Following a 30 minute incubation with slow shaking, the wells were aspirated and washed three times with PBS to remove unbound cells. To certain wells were added known numbers of cells for determination of a standard curve of fluorescent units per cell. The fluorescence on the plate was quantitated using a fluorescent plate reader. Following subtraction of a blank representing the binding of cells to non-Rg containing wells (<5000 cells), the specific binding to P- or E- selectin was determined.
# Inhibitors of cell binding
# Test compounds were prepared by dissolution to a final concentration of 20 mg/ml in dimethyl sulfoxide (DMSO), diluted in PBS to 2 mg/ml, and briefly sonicated prior to use. The Rg coated wells were preincubated at room temperature for 15 minutes with the inhibitor, and 200,000 cells were added to yield the final indicated inhibitor concentration in 160 ul of PBS. The data is obtained as percent inhibition of specific binding: [formula] and a plot of dose vs. percent inhibition of Rg binding is generated in which IC50 (μM) is calculated and reported in Table 1.
# [2] = system: rats; assay: Reverse passive Arthus reaction (RPA) in rats; type: in vivo, Male Sprague Dawley rats; settings: 3 mg single dose IV, 4 hours; for RPA MPO % Inhib.: myeloperoxidase; for RPA VP % Inhib.: vascular permeability
# Description: 3. Reverse Passive Arthus Reaction in Rats
# The reverse passive Arthus reaction in rats is a modification of the method by Mulligan et al., as described in J. Clin. Invest. (1991) 88: 1396-1406. This is an experimental model in which the interaction of antigen-antibodycomplexes and complement leads to a severe vasculitis that is associated with edema, induration, erythema and hemorrhage. The interaction between the antigen-antibody complexes and complement leads to a localized influx of neutrophils. These neutrophils release a variety of mediators that are associated with tissue damage and vascular permeability. The localized inflammatory reaction is measured using different techniques i.e., vascular permeability and neutrophil influx which is evaluated both biochemically and microscopically.
# Male Sprague Dawley specific pathogen-free rats with jugular vein cannulae (280-320 g, Hill Top Labs, Pa.) are used in these studies. Animals are acclimated for at least 1 day and individually housed in stainless steel cages. The dorsal region of the rats is closely clipped 2 days prior to the experiments and divided into 4 sites on each side of the midline. Prior to all injections the rats are sedated with 0.4 ml per 300 gm rat of ketamine/rompun [1000 mg (10 ml) of ketamine HCL is mixed with 40 mg (2.0 ml) Rompun] administered IP and or inhalation anesthesia with metafane (methoxyflurane).
# Bovin Serum Albumin (BSA) and rabbit polyclonal IgG rich in anti-BSA are purchased from Sigma Chemical Co. (St. Louis, Mo.). Radiolabelled ^125 I-BSA (spAct 1-5 μCi/μg) is purchased from Dupont NEN (Boston, Mass.).
# Each rat is administered intradermal (ID) injection of (0.4 mg, 0.6 mg and 0.8 mg) anti-BSA in a volume of 100 μl per injection in normal saline. The ID injections are randomized near the mid dorsal region on both sides of the back bone. Immediately after the ID injections of the anti-BSA, the rats are administered intravenous (IV) injections of BSA (10 mg in 1.0 ml) in normal saline containing ^125 I labeled BSA (1 μCi/ml BSA or 5.0 μCi/kg body wt) for quantification of dermal vascular injury. Anti-inflammatory agents such as inhibitors of adhesion molecules of the present invention are administered IV at a single dose of 3 mg immediately after BSA. Four (4) hours after the IV injection of BSA, the rats are anesthetized with metafane and 2 to 3 ml of blood is withdrawn via the cannula into an anticoagulant containing (EDTA or Heparin) tube and plasma separated and saved for neutrophil and albumin quantitation. The rats are killed and the skin surrounding the injection site (15 mm diameter) is punched out and weighed. The skin samples and a fixed volume of plasma (0.1 to 1.0 ml) is analyzed in a gamma-counter for ^125 I content. Skin samples from the contralateral side are processed and analyzed for myeloperoxidase activity (MPO) as a measure of neutrophil accumulation. As needed, samples are also processed for histological evaluation of the reacted sites.
# Vascular Permeability (VP)
# The calculation of the plasma protein exudation into skin is made by determining the radioactivity in the tissue and relating this to the level of radioactive albumin in the blood at the time of sacrifice. […] [formula]
# Percent inhibition of the test compound at 3 mg was determined as follows: [formula] Myeloperoxidase (MPO)
# MPO is located in the azurophil granules of polymorphonuclear leukocytes (PMN). Because of its abundance in these cells (5% dry weight), this enzyme is used as a marker for tissue neutrophil content. For tissue MPO content, the method of Bradley, et al., was used as described in J. Invest. Dermatol. (1982) 78: 206-209. Biopsies from each treatment group were placed in plastic tubes (15×100 mm) containing 10 ml of 0.5% hexadecyltrimethylammonium bromide (HTAB) in 0.05M potassium phosphate buffer pH 6.0. The tissue was then homogenized with a Brinkmann Polytron homogenizer (10s). […]
# [3] = target: T2, P-selectin (Homo sapiens, UniProt P16109); assay: P-selectin binding ELISA to immobilized sulfatides (cell free); settings: inhibition of P-selectin binding to immobilized sulfatide
# T2 construct: consists of the human lectin domain, the EGF domain, and two complement repeats of the human selectins; made in house
# Description: Based on the availability of soluble forms of P-selectin prepared as described by Aruffo, A., et al., Cell, 67, 35-44 (1991), a binding ELISA based assay modified from Foxall, et al., J., Cell Biol., 117, 895-902 (1992) was developed to measure inhibitors of P-selectin binding to immobilized sulfatides. Such inhibitors were tested in the assay described below.
# 0.1 ml of sulfatide (SIGMA) or lysosulfatide (SIGMA) each at 1 μg/ml in MeOH were added to the wells of a 96-well ELISA plate (ProBind, Falcon) and allowed to dry overnight at room temperature. The next day the antigen coated plates were blocked for 1.5 hours at room temperature with 5% BSA (ICN) in buffer containing 20 mM Hepes and 0.15M NaCl, pH 8.0. Wild type P-selectin and mutants thereof were first mixed with HRP-conjugated goat anti-human lgG (Fisher Scientific), serially diluted and then incubated for 30 minutes at 37° C. in buffer containing 20 mM Hepes, 0.15M NaCl, 1% BSA and 0.8 mM CaCl2, pH 8.0 prior to addition to the BSA blocked plates. Following the 30 minute preincubation, the fusion protein-HRP conjugate immunocomplexes were incubated on the blocked antigen coated plates for 45 minutes at 37° C. in the presence or absence of the test compounds and then washed to remove any unbound proteins. Bound complexes were detected by addition of substrate buffer (95 mM NaOAc.3H2 O, 5 mM citric acid monohydrate, 1.4 mM urea/H2O2) containing 3, 3', 5, 5' Tetramethylbenzidine (SIGMA). Reactions were stopped by the addition of 3N sulfuric acid and the absorbance read on an ELISA reader at dual wavelengths 450 and 630 nm. The efficacy of these compounds was compared to that of sulfatide (positive control) or to lysosulfatide (negative control). The data is obtained as percent inhibition of specific binding [formula] and a plot of dose vs. percent inhibition of Rg binding is generated in which IC50 (μM) is calculated and reported as cell free data in Table 1.
# [4] = system: P-selectin; settings: Skinner et al.; cited from earlier work
# T1 sequence (P16109 with tags, fused parts or gaps limits assumed): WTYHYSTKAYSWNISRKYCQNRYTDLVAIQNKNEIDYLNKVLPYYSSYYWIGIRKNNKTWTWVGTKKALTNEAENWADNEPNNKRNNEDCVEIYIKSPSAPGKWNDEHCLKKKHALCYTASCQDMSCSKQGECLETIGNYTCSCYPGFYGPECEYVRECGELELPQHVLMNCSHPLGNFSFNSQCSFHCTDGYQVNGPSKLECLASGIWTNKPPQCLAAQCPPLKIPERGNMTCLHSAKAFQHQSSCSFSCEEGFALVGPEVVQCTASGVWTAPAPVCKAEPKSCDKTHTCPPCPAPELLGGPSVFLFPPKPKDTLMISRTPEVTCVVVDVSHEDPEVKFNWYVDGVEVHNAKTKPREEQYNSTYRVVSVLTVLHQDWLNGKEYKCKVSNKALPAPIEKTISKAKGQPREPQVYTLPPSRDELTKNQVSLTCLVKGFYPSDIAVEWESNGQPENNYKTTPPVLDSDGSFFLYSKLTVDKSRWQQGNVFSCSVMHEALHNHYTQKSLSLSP
# T2 sequence (P16109 with tags, fused parts or gaps limits assumed): as above
compound,measurement,setting,value
"CCCCCCCCCCCCC/C=C/[C@@H](OC(=O)c1ccccc1)[C@H](CO[C@H]1O[C@H](COS(=O)(=O)O)[C@@H](OS(=O)(=O)O)[C@H](OC(=O)c2ccccc2)[C@H]1OC(=O)c1ccccc1)NC(=O)CCCCCCCCCCCCCCC [Example 7, (2S,3R,4E)-3-Benzoyloxy-2-hexadecanoylamino-1-[-2,3-di-O-benzoyl-4,6-di-O-(sodiumoxysulfonyl)-α-D-glucopyranosyloxy]-4-octadecene]",IC50,[1],11 µM
same,RPA MPO % Inhib.,[2],97%
same,RPA VP % Inhib.,[2],88%
same,IC50,[3],~0.4 µM
"CCCCCCCCCCCCC/C=C/[C@@H](OC(=O)c1ccccc1)[C@H](CO[C@H]1O[C@H](COS(=O)(=O)O)[C@H](OS(=O)(=O)O)[C@H](OC(=O)c2ccccc2)[C@H]1OC(=O)c1ccccc1)NC(=O)CCCCCCCCCCCCCCC [Example 1, (2S,3R,4E)-3-Benzoyloxy-2-hexadecanoylamino-1-[2,3-di-O-benzoyl-4,6-di-O-(sodiumoxysulfonyl)-α-D-galactopyranosyloxy]-4-octadecene]",IC50,[1],8.3 µM
same,RPA MPO % Inhib.,[2],97%
same,RPA VP % Inhib.,[2],68%
same,IC50,[3],0.3 µM
heparin,inhibit P-selectin mediated adhesion,[4],inhibit P-selectin mediated adhesion
"CCCCCCCCCCCCC/C=C/[C@@H](OC(=O)c1ccccc1)[C@H](CO[C@H]1O[C@H](COS(=O)(=O)O)[C@H](OS(=O)(=O)O)[C@H](OCc2ccccc2)[C@H]1OCc1ccccc1)NC(=O)CCCCCCCCCCCCCCC [Example 11, (2S,3R,4E)-2-Hexadecanoylamino-3-benzoyloxy-1-[2,3-di-O-benzyl-4,6-di-O-(sodiumoxysulfonyl)-α-D-galactopyranosyloxy]-4-octadecene]",IC50,[1],8.9 µM
same,RPA MPO % Inhib.,[2],53.7%
same,RPA VP % Inhib.,[2],32%
same,IC50,[3],1.7 µM
"CCCCCCCCCCCCC/C=C/[C@@H](O)[C@H](CO[C@H]1O[C@H](COS(=O)(=O)O)[C@H](OS(=O)(=O)O)[C@H](O)[C@H]1O)NC(=O)CCCCCCCCCCCCCCC [Example 2, (2S,3R,4E)-3-Hydroxy-2-hexadecanoylamino-1-[4,6-di-O-(sodiumoxysulfonyl)-α-D-galactopyranosyloxy]-4-octadecene]",IC50,[1],17 µM
same,RPA MPO % Inhib.,[2],0%
same,RPA VP % Inhib.,[2],14%
same,IC50,[3],0.2 µM
"CCCCCCCCCCCCC/C=C/[C@@H](OC(=O)c1ccccc1)[C@H](CO[C@H]1O[C@H](COS(=O)(=O)O)[C@H](O)[C@H](O)[C@H]1OS(=O)(=O)O)NC(=O)CCCCCCCCCCCCCCC [Example 15, (2S,3R,4E)-3-Benzoyloxy-2-hexadecanoylamino-1-[2,6-di-O-(sodiumoxysulfonyl)-α-D-galactopyranosyloxy]-4-octadecene]",IC50,[1],5.2 µM
same,RPA MPO % Inhib.,[2],0%
same,RPA VP % Inhib.,[2],50%
same,IC50,[3],2.2 µM
"CCCCCCCC/C=C\CCCCCCCCCCCCCC(=O)N[C@@H](CO[C@H]1O[C@H](COS(=O)(=O)O)[C@H](OS(=O)(=O)O)[C@H](O)[C@H]1O)[C@H](O)/C=C/CCCCCCCCCCCCC [Example 4, (2S,3R,4E)-3-Hydroxy-2-(cis-15-tetracosenoylamino)-1-[4,6-di-O-(sodiumoxysulfonyl)-α-D-galactopyranosyloxy]-4-octadecene]",IC50,[1],8 µM
same,IC50,[3],9 µM
dextran sulfate,inhibit P-selectin mediated adhesion,[4],inhibit P-selectin mediated adhesion
"CCCCCCCCCCCCC/C=C/[C@@H](OC(=O)c1ccccc1)[C@H](CO[C@H]1O[C@H](COS(=O)(=O)O)[C@H](OS(=O)(=O)O)[C@H](OS(=O)(=O)O)[C@H]1OS(=O)(=O)O)NC(=O)CCCCCCCCCCCCCCC [Example 23, (2S,3R,4E)-3-Benzoyloxy-2-hexadecanoylamino-1-[2,3,4,6-tetra-O-(sodiumoxysulfonyl)-α-D-galactopyranosyloxy]-4-octadecene]",IC50,[1],2.6 µM
same,RPA MPO % Inhib.,[2],26.4%
same,RPA VP % Inhib.,[2],0%
same,IC50,[3],> 8 µM
"CCCCCC/C=C/[C@@H](OC(=O)c1ccccc1)[C@H](CO[C@H]1O[C@H](COS(=O)(=O)O)[C@H](OS(=O)(=O)O)[C@H](OC(=O)c2ccccc2)[C@H]1OC(=O)c1ccccc1)NC(=O)CCCCC [Example 10, (2S,3R,4E)-1-[2,3-di-O-benzoyl-4,6-Di-O-(sodiumoxysulfonyl)-α-D-galactopyranosyloxy]-3-benzoyloxy-2-hexanoylamino-4-undecene]",IC50,[1],8 µM
same,RPA MPO % Inhib.,[2],71.6%
same,RPA VP % Inhib.,[2],11%
same,IC50,[3],> 6.1 µM
